Data reported in PubChem BioAssay AID602273 (Broad Institute, 2012).
Active and inactive are the calls of the source. How the calls were made is not given here.

Assay: rescue of alpha-synuclein yeast toxicity, dose response, S. cerevisiae, plate reader, cherry-pick (AID 602273)
Settings: S. cerevisiae alpha-synuclein toxicity rescue, OD600 growth, 24 h

With `CCSc1nnc(NC(=O)c2cccnc2Cl)s1` the growth rescue activity (at 26 µM (top of the series)) was -4.76% (inactive).

In the case of `O=C(Cc1cccs1)NCc1ccccc1Br`, the growth rescue activity (at 26 µM (top of the series)) is reported as -5.14% (inactive).

In the case of `Cc1ccc(O)c(CNc2nccs2)c1`, the growth rescue activity (at 26 µM (top of the series)) is reported as 12% (inactive).

In the case of `CC(=O)Nc1nnc(SCC(=O)c2ccc(F)cc2)s1`, the growth rescue activity (at 26 µM (top of the series)) is reported as -0.765% (inactive).

With `COc1ccc2c(c1OC)C(=O)OC2Nc1nc(-c2ccccc2)cs1` (stereo unspecified) the growth rescue activity (at 26 µM (top of the series)) was 3.17% (inactive).

In the case of `O=C(/C=C/Sc1ccccc1)c1ccccc1`, the growth rescue activity (at 26 µM (top of the series)) is reported as 3.99% (inactive).

For `COc1ccc(-c2nc3scc(-c4ccccc4)n3n2)cc1`, the growth rescue activity (at 26 µM (top of the series)) was -0.958% (inactive).

In the case of `COc1ccccc1C(=O)CSc1nnc(-c2ccco2)o1`, the growth rescue activity (at 26 µM (top of the series)) is reported as -9.45% (inactive).

For `CN(CCC1CCCCO1)C(=O)CCc1nnc(CCCCc2ccccc2)o1` (stereo unspecified), the growth rescue activity (at 26 µM (top of the series)) was 1.7% (inactive).

For `CCCSc1nnc(Sc2nnnn2-c2ccccc2)s1`, the growth rescue activity (at 26 µM (top of the series)) was 4.13% (inactive).

In the case of `CCOC(=S)SCC(=O)Nc1nc(C)c(C)s1`, the growth rescue activity (at 26 µM (top of the series)) is reported as 0.308% (inactive).

In the case of `Cc1csc2nc(CCNS(=O)(=O)c3cccs3)cn12`, the growth rescue activity (at 26 µM (top of the series)) is reported as 3.48% (inactive).

With `Cc1nc(SCCOc2ccc(F)cc2)c2ccccc2n1` the growth rescue activity (at 26 µM (top of the series)) was -1.07% (inactive).

In the case of `O=C1NCC2=C1C(c1ccc(Br)cc1)Nc1ccccc1N2` (stereo unspecified), the growth rescue activity (at 26 µM (top of the series)) is reported as -8.45% (inactive).

With `CCc1c(C)sc(NC(=O)c2ccc(Br)o2)c1C(=O)OC` the growth rescue activity (at 26 µM (top of the series)) was 5.35% (inactive).

With `Cc1ccc(CNC(=O)CSc2ccsc2[N+](=O)[O-])cc1` the growth rescue activity (at 26 µM (top of the series)) was 2.48% (inactive).

With `CC(=O)Cc1cc(O)c2ccccc2c1OC(=O)c1ccccc1` the growth rescue activity (at 26 µM (top of the series)) was -0.443% (inactive).

With `O=C(Nc1ccc2c(c1)C(=O)OC2)c1ccc(Cl)cc1` the growth rescue activity (at 26 µM (top of the series)) was -1.79% (inactive).

For `Brc1cnc2nc(SC/C=C/c3ccccc3)[nH]c2c1`, the growth rescue activity (at 26 µM (top of the series)) was 0.58% (inactive).

With `Cc1nc2ccccc2nc(C)c1=NOCc1ccccc1Cl` the growth rescue activity (at 26 µM (top of the series)) was 0.053% (inactive).

For `COc1ccc(OCc2nnnn2-c2ccccc2)cc1`, the growth rescue activity (at 26 µM (top of the series)) was -3.39% (inactive).

In the case of `COc1ccc(S(=O)(=O)n2nc(OC(=O)c3ccccc3Br)cc2N)cc1`, the growth rescue activity (at 26 µM (top of the series)) is reported as -9.27% (inactive).

In the case of `CC1(C)CC(=O)C(=Cc2cn(-c3ccccc3)nc2-c2ccccc2)C(=O)C1`, the growth rescue activity (at 26 µM (top of the series)) is reported as 1.64% (inactive).

With `C[C@H](NC(=O)[C@@H]1CSC2c3ccccc3C(=O)N21)C(=O)NCCc1ccccc1` (stereo partly specified) the growth rescue activity (at 26 µM (top of the series)) was -5.08% (inactive).

For `O=C(O)C1CCCCC1C(=O)Nc1ccc2c(c1)CCC2` (stereo unspecified), the growth rescue activity (at 26 µM (top of the series)) was -2.7% (inactive).

With `O=C(NCc1cccc(F)c1)c1noc2c1CCCC2` the growth rescue activity (at 26 µM (top of the series)) was 10.6% (inactive).

For `CCCc1nc(SCC(=O)Nc2cc(C)on2)c2ccccc2n1`, the growth rescue activity (at 26 µM (top of the series)) was 4.07% (inactive).

For `Cc1ccc(C2=Nc3ccccc3NC(C)(c3ccc(C)o3)C2)o1` (stereo unspecified), the growth rescue activity (at 26 µM (top of the series)) was 0.617% (inactive).

For `O=c1[nH]c2c(s1)C=Nc1ccccc1N2`, the growth rescue activity (at 26 µM (top of the series)) was 4.6% (inactive).

For `O=C1NC(=O)[C@]2(Cc3ccccc3N3CCN(c4ccccc4)CC32)C(=O)N1Cc1ccccc1` (stereo partly specified), the growth rescue activity (at 26 µM (top of the series)) was 3.15% (inactive).

With `O=C1C2CC=CCC2C(=O)N1c1ccc(NCCc2ccccc2)c([N+](=O)[O-])c1` (stereo unspecified) the growth rescue activity (at 26 µM (top of the series)) was 11.8% (inactive).

In the case of `COC(=O)[C@@H](Cc1c[nH]c2ccccc12)NC(=O)c1ccc2c(c1)OCO2`, the growth rescue activity (at 26 µM (top of the series)) is reported as 0.758% (inactive).

In the case of `Cc1cccc(NCc2nc3ccccc3n2C)c1`, the growth rescue activity (at 26 µM (top of the series)) is reported as -1.89% (inactive).

In the case of `Cc1ccc2cccnc2c1NC(=S)NC(=O)c1ccccc1`, the growth rescue activity (at 26 µM (top of the series)) is reported as -4.6% (inactive).

With `CC1(C)CC(=O)C2=C(C1)OC(N)=C(C#N)C2C#Cc1ccccc1` (stereo unspecified) the growth rescue activity (at 26 µM (top of the series)) was 8.43% (inactive).

With `Nc1nnc(SCc2c(F)cccc2Cl)s1` the growth rescue activity (at 26 µM (top of the series)) was 4.49% (inactive).

For `N#Cc1ccc(OCCN2CCc3ccccc3C2)cc1`, the growth rescue activity (at 26 µM (top of the series)) was 4.6% (inactive).

In the case of `O=C(CSCc1ccc(Br)cc1)N1CCCC1`, the growth rescue activity (at 26 µM (top of the series)) is reported as 0.808% (inactive).

For `O=C(OCc1csc(-c2ccccc2)n1)c1cccs1`, the growth rescue activity (at 26 µM (top of the series)) was 0.967% (inactive).

In the case of `CC(C)CC(=O)Nc1ccc(N2CCOCC2)cc1`, the growth rescue activity (at 26 µM (top of the series)) is reported as 3.83% (inactive).

In the case of `O=C1NC(=S)S/C1=C/c1ccc(OC(=O)c2ccco2)cc1`, the growth rescue activity (at 26 µM (top of the series)) is reported as 9.87% (inactive).

For `Cc1cccc(-c2cc(C(=O)Nc3ccncc3)c3ccccc3n2)c1`, the growth rescue activity (at 26 µM (top of the series)) was 1.56% (inactive).

For `CC(C)OC(=O)c1ccc(COc2ccc3ccc(=O)oc3c2)o1`, the growth rescue activity (at 26 µM (top of the series)) was 2.08% (inactive).

For `C=CCn1c(C)cc(C(=O)CSc2nc(N)cc(N)n2)c1C`, the growth rescue activity (at 26 µM (top of the series)) was 0.814% (inactive).

For `O=C(CSc1ccc(Cl)cc1)N1CCN(c2c(Cl)cccc2[N+](=O)[O-])CC1`, the growth rescue activity (at 26 µM (top of the series)) was -19.7% (inactive).

For `Cc1ccc(CN(C)C(=O)C2CCC(=O)N(CCc3ccccc3)C2)o1` (stereo unspecified), the growth rescue activity (at 26 µM (top of the series)) was 1.41% (inactive).

With `CCC(=O)Nc1cccc(C(=O)/C=C/c2ccc(F)cc2)c1` the growth rescue activity (at 26 µM (top of the series)) was -9.73% (inactive).

In the case of `Cc1ccc(/C=C2\Oc3cc(OC(=O)N4CCOCC4)ccc3C2=O)cc1`, the growth rescue activity (at 26 µM (top of the series)) is reported as -7.43% (inactive).

In the case of `CC(C)(C)c1ccc(COc2ccsc2C(=O)O)cc1`, the growth rescue activity (at 26 µM (top of the series)) is reported as -21.6% (inactive).

In the case of `Nc1ccc(Sc2cnn(-c3ccccc3)c(=O)c2Cl)cc1`, the growth rescue activity (at 26 µM (top of the series)) is reported as 1.77% (inactive).

In the case of `COc1ccc(C(=O)Cn2c(C(=O)/C=C/c3ccccc3)nc3ccccc32)cc1`, the growth rescue activity (at 26 µM (top of the series)) is reported as 1.68% (inactive).

In the case of `Cc1ccc(N2C(=O)NC(=O)/C(=C\C=C\c3ccco3)C2=O)cc1C`, the growth rescue activity (at 26 µM (top of the series)) is reported as 1.5% (inactive).

In the case of `O=C(NC1C(=O)NNC1c1ccccc1)c1ccccc1` (stereo unspecified), the growth rescue activity (at 12 µM (top of the series)) is reported as 8.13% (inactive).

With `COC(=O)C(C)Sc1ncnc2c1nnn2-c1ccc(F)cc1` (stereo unspecified) the growth rescue activity (at 26 µM (top of the series)) was -1.99% (inactive).

In the case of `O=C1C2CC=CCC2C(=O)N1Cc1nnc(-c2ccc(Cl)cc2)o1` (stereo unspecified), the growth rescue activity (at 26 µM (top of the series)) is reported as -2.43% (inactive).

In the case of `Fc1ccccc1-c1nc2nc3ccccc3nc2n1CC1CCCO1` (stereo unspecified), the growth rescue activity (at 26 µM (top of the series)) is reported as 11.6% (inactive).

For `CCN(CC)CCCNC(=O)CSc1c2c(nc3cc(Cl)ccc13)CCCC2`, the growth rescue activity (at 26 µM (top of the series)) was 3.73% (inactive).

For `O=c1[nH][nH]c(-c2ccccc2O)c1C(C[N+](=O)[O-])c1ccccc1` (stereo unspecified), the growth rescue activity (at 26 µM (top of the series)) was 0.55% (inactive).

For `Cc1cc(-c2nnc(CCC(=O)N(C)Cc3cccc4ccccc34)o2)no1`, the growth rescue activity (at 26 µM (top of the series)) was 8.5% (inactive).

For `COc1ccc2cc(/C=C/C(=O)N3CCN(CC(=O)N4CCCCCC4)CC3)ccc2c1`, the growth rescue activity (at 26 µM (top of the series)) was -2.63% (inactive).

In the case of `Cc1cc(C)n(CC(O)COc2ccc(Cl)cc2Cl)n1` (stereo unspecified), the growth rescue activity (at 26 µM (top of the series)) is reported as 9.05% (inactive).

In the case of `CCOC(=O)C1=NN(C(=O)c2ccccc2)C(O)(c2ccc(C)cc2)C1` (stereo unspecified), the growth rescue activity (at 26 µM (top of the series)) is reported as 10.9% (inactive).

With `Cn1cc([N+](=O)[O-])c(C(=O)Nc2ccc(-c3nc4ccccc4[nH]3)cc2)n1` the growth rescue activity (at 26 µM (top of the series)) was -1.83% (inactive).

With `O=C(CCC1CCCN(C(=O)c2ccc3cc[nH]c3c2)C1)NCc1ccc(F)c(F)c1` (stereo unspecified) the growth rescue activity (at 26 µM (top of the series)) was -2.77% (inactive).

For `c1ccc(N2CC3CCc4ccccc4C3=N2)cc1` (stereo unspecified), the growth rescue activity (at 26 µM (top of the series)) was 11.6% (inactive).

For `O=C(CSc1nnc(-c2c[nH]c3ccccc23)n1-c1ccc(F)cc1)NCc1ccco1`, the growth rescue activity (at 26 µM (top of the series)) was 0.096% (inactive).

With `Cc1cc(C(=O)N2CCN(c3ccccn3)CC2)c(C)o1` the growth rescue activity (at 26 µM (top of the series)) was -0.518% (inactive).

With `Cn1c(CO)cnc1SCC(=O)c1ccc(Cl)cc1` the growth rescue activity (at 26 µM (top of the series)) was 4.95% (inactive).

For `CCn1c(SCC(=O)c2ccc(Cl)cc2)nnc1-c1ccoc1C`, the growth rescue activity (at 26 µM (top of the series)) was 2.33% (inactive).

In the case of `CC(C)C(=O)N1CCC(n2nccc2NC(=O)CCOc2ccccc2)CC1`, the growth rescue activity (at 26 µM (top of the series)) is reported as -1.45% (inactive).

With `O=c1c2ccccc2[nH]c(=S)n1CCC1=CCCCC1` the growth rescue activity (at 26 µM (top of the series)) was 21.3% (inactive).
